{"source": "patent US20070105721A1", "about": "“Vinylogous 4-Hpyrones and their use in promoting plant growth” (priority 2003, published 2007); on Germination (%), Borya sphaerocephala: tested at 0.1 ppm; on Germination (%), Centrolepis aristate: tested at 0.1 ppm; on Germination (%), Cherianthera preissiana: tested at 0.1 ppm; on Germination (%), Leek: tested at 0.1 ppm; on Germination (%), Opercularia vaginate: tested at 0.1 ppm; on Germination (%), Parsley: tested at 0.1 ppm; on Germination (%), Phyllanthus calycinus: tested at 0.1 ppm", "format_in_all_cases": "in vivo", "key": {"[1]": {"tested_on": "Grand Rapids Lettuce seeds (Waltham strain)", "experiment": "Grand Rapids bioassay", "description": "(§1) Grand Rapids Lettuce seeds (Waltham strain) were obtained from R.B. Dessert Seed Co. and were frozen in sachets until use. For testing of aqueous samples, 2.5 mL of test solution was applied to three replicates of 40-50 seeds in Petri dishes (90 mm) lined with two layers of Whatman No. 1 filter paper (7 cm). Millipore filtered water (MP water) was used as a control for each experiment and dilutions of each sample were used to ensure the optimum concentration range for activity. Fractions were reconstituted to their original concentration (before fractionation) and dilutions were made using MP water. Petri dishes were sealed with a layer of plastic wrap, and stored in a light proof container. All manipulations involving the seed were carried out in a dark room and germinants, based on the appearance of a radicle, were scored after 48 hours incubation."}, "[2]": {"tested_on": "test species", "experiment": "Germination tests in a range of test species", "conditions": "each of the test species", "description": "as §1\nConostylis aculeata and Stylidium affine seeds were obtained from Nindethana seed service and stored before use. For testing of aqueous samples, three replicates of 20-30 sterilised seeds were added to UV sterilised petri dishes (90 mm), containing two Whatman No. 1 filter papers (7 cm) moistened with the filtered test solution (2.5 mL, 0.22 μm). […] The seeds were scored on a weekly basis with optimum germination achieved between 4-6 weeks."}, "[3]": {"tested_on": "Allium ampeloprasum (leek) seeds", "experiment": "Seed vigour enhancement", "conditions": "100 ppb compound 1a", "description": "(§2) For each species, five replicates of 20 seeds were placed on Petri dishes lined with seed germination paper. The Petri dishes were moistened with de-ionised water (control) or 100 ppb compound 1a. All species were incubated in constant darkness at 12/12 hr alternating temperatures of 7/18° C., 13/26° C. or 18/33° C. Germination was scored on radicle emergence and was recorded every 2-3 days until germination had ceased."}, "[4]": {"tested_on": "Petroselinium crispum (parsley) seeds", "experiment": "Seed vigour enhancement", "conditions": "100 ppb compound 1a", "description": "as §2"}, "[5]": {"tested_on": "Stylidium affine seeds", "experiment": "Native bioassay", "description": "(§3) Conostylis aculeata and Stylidium affine seeds were obtained from Nindethana seed service and stored before use. For testing of aqueous samples, three replicates of 20-30 sterilised seeds were added to UV sterilised petri dishes (90 mm), containing two Whatman No. 1 filter papers (7 cm) moistened with the filtered test solution (2.5 mL, 0.22 μm). MP water was used as a control for each experiment and dilutions of each sample were used to ensure the optimum concentration range for activity. Petri dishes were then sealed with parafilm and incubated in the dark at 20±1° C. The seeds were scored on a weekly basis with optimum germination achieved between 4-6 weeks."}, "[6]": {"tested_on": "Conostylis aculeata seeds", "experiment": "Native bioassay", "description": "as §3"}, "[7]": {"tested_on": "Nicotiana attenuate", "experiment": "Germination on moist filter paper in petri dishes", "conditions": "SW 1/10 dilution, compound 1a tested at 100 ppb"}, "[8]": {"tested_on": "Caulanthus heterophyllus", "experiment": "Germination on moist filter paper in petri dishes", "conditions": "SW 1/10 dilution, compound 1a 10 ppb"}, "[9]": {"tested_on": "Lawrencella davenportii", "experiment": "Germination on moist filter paper in petri dishes", "conditions": "SW 1/10 dilution, compound 1a 10 ppb"}, "[10]": {"tested_on": "Emmenanthe penduliflora", "experiment": "Germination on moist filter paper in petri dishes", "conditions": "SW 1/10 dilution, compound 1a 10 ppb"}, "[11]": {"tested_on": "Opercularia vaginate", "experiment": "Seed priming", "conditions": "24 hr priming in 100 ppb compound 1a, re-drying and sowing", "description": "(§4) For testing on Australian species, three replicates of 25 seeds were soaked in one of de-ionised DI water or 100 ppb compound 1a for 24 hr at 23° C. The seeds were re-dried at 23° C. for 24 hr and incubated on Petri dishes containing 0.7% (w/v) water agar in constant darkness at 18° C. Germination (radicle emergence) was recorded every 2-3 days until germination had ceased."}, "[12]": {"tested_on": "Centrolepis aristate", "experiment": "Seed priming", "conditions": "24 hr priming in 100 ppb compound 1a, re-drying and sowing", "description": "as §4"}, "[13]": {"tested_on": "Phyllanthus calycinus", "experiment": "Seed priming", "conditions": "24 hr priming in 100 ppb compound 1a, re-drying and sowing", "description": "as §4"}, "[14]": {"tested_on": "Borya sphaerocephala", "experiment": "Seed priming", "conditions": "24 hr priming in 100 ppb compound 1a, re-drying and sowing", "description": "as §4"}, "[15]": {"tested_on": "Cherianthera preissiana", "experiment": "Seed priming", "conditions": "24 hr priming in 100 ppb compound 1a, re-drying and sowing", "description": "as §4"}, "[16]": {"tested_on": "Emmenanthe penduliflora seeds", "experiment": "Duration of priming required to induce a germination response", "conditions": "priming in 100 ppb compound 1a, re-drying then incubation; FIG. 5", "description": "To determine the duration of priming required to induce a germination response, three replicates of 20 seeds of Emmenanthe penduliflora were soaked in at 23° C. in a 100 ppb compound 1a solution for 1, 5, 10, 20, 40 or 80 min or 3, 6, 12, 24 or 48 hr. The seeds were re-dried for 24 hr at 23° C. and placed on Petri dishes lined with seed germination paper and moistened with de-ionised water. The Petri dishes were incubated at 18° C. in constant darkness. Germination (radicle emergence) was recorded every 2-3 days until germination had ceased."}, "[17]": {"tested_on": "Microlaena stipoides", "experiment": "Germination enhancement of species used in rangeland pasture systems", "conditions": "100 ppb compound 1a; constant darkness at 18° C.; mean ± standard error", "description": "(§5) Three replicates of 25 seeds were placed on Petri dishes lined with seed germination paper. The Petri dishes were moistened with de-ionised water (control) or 100 ppb compound 1a. All species were incubated in constant darkness at 18° C. Germination (radicle emergence) was recorded every 2-3 days until germination had ceased."}, "[18]": {"tested_on": "intact or de-hulled Microlaena stipoides seeds", "experiment": "Compound 1a as a replacement for de-hulling of grass species", "conditions": "100 ppb compound 1a", "description": "as §5, with “Intact or de-hulled seeds were employed for this experiment. Seeds were de-hulled manually by carefully extracting the seeds from the surrounding palea and lemma. Three” for “Three”, “25 intact or de-hulled” for “25”"}, "[19]": {"conditions": "Neat (neat SW; compound 1a 1 mg/L), mean (SEM)"}, "[20]": {"conditions": "compounds isolated from smoke, mean (SEM)"}, "[21]": {"conditions": "26/13 ° C. 12/12 hr alternating"}, "[22]": {"conditions": "33/18 ° C. 12/12 hr alternating"}, "[23]": {"conditions": "1/10 (of neat SW; of compound 1a 1 mg/L)"}, "[24]": {"conditions": "1/100 (of neat SW; of compound 1a 1 mg/L)"}}, "data": [{"compound": "Cc1c2ccocc-2oc1=O", "note": "[Compound 1a, 3-Methyl-2H-furo[2,3-c]pyran-2-one]", "values": [{"measurement": "Grand Rapids germination", "setting": "[1]; 1/1 000 000 dilution of compound 1a 1 mg/L", "value": "60.9 (2.5) %"}, {"measurement": "Grand Rapids germination", "setting": "[1]; 1/10 000 dilution (of neat SW; of compound 1a 1 mg/L)", "value": "96.4 (0.6) %"}, {"measurement": "Grand Rapids germination", "setting": "[1]; 1/10 dilution (of neat SW; of compound 1a 1 mg/L)", "value": "98.4 (0.9) %"}, {"measurement": "Grand Rapids germination", "setting": "[1]; 1/100 000 dilution of compound 1a 1 mg/L", "value": "76.9 (1.5) %"}, {"measurement": "Grand Rapids germination", "setting": "[1]; 1/100 dilution (of neat SW; of compound 1a 1 mg/L)", "value": "98.4 (1.6) %"}, {"measurement": "level at which compound 1a is active in promoting germination", "setting": "[1]; 1/100 dilution of the estimated content of neat smoke water (1 mg per 10 000 L)", "value": "10^−10 mol/L"}, {"measurement": "Grand Rapids germination", "setting": "[1]; 1/1000 dilution (of neat SW; of compound 1a 1 mg/L)", "value": "97.0 (0.5) %"}, {"measurement": "Grand Rapids germination", "setting": "[1]; [19]", "value": "99.4 (0.6) %"}, {"measurement": "inhibition of germination", "setting": "[1]; at higher concentrations of 1a compared to the amount in smoke water", "value": "no inhibition of germination is observed"}, {"measurement": "Germination, Grand Rapids", "setting": "[1]; [20]", "value": "99.3 (0.7) %"}, {"measurement": "concentration for which germination promoting activity has been shown", "setting": "[2]", "value": 100, "unit": "ppt"}, {"measurement": "Germination (%), Leek", "setting": "[3]; 18/7 ° C. 12/12 hr alternating, mean ± standard error", "value": "97.1 ± 0.9", "unit": "a %"}, {"measurement": "Germination (%), Leek", "setting": "[3]; [21]", "value": "92.0 ± 4.3", "unit": "a %"}, {"measurement": "Germination (%), Leek", "setting": "[3]; [22]", "value": "72.0 ± 6.3", "unit": "b %"}, {"measurement": "Germination (%), Parsley", "setting": "[4]; 18/7 ° C. 12/12 hr alternating", "value": "27.0 ± 1.9", "unit": "a %"}, {"measurement": "Germination (%), Parsley", "setting": "[4]; [21]", "value": "70 ± 5.6", "unit": "b %"}, {"measurement": "Germination (%), Parsley", "setting": "[4]; [22]", "value": "29.0 ± 6.8", "unit": "b %"}, {"measurement": "Stylidium affine germination", "setting": "[5]; 1/10 000 of compound 1a 1 mg/L", "value": "39.9 (10.9) %"}, {"measurement": "Stylidium affine germination", "setting": "[5]; [23]", "value": "83.4 (3.7) %"}, {"measurement": "Stylidium affine germination", "setting": "[5]; [24]", "value": "71.8 (1.7) %"}, {"measurement": "Stylidium affine germination", "setting": "[5]; 1/1000 of compound 1a 1 mg/L", "value": "70.9 (3.1) %"}, {"measurement": "Stylidium affine germination", "setting": "[5]; [19]", "value": "79.0 (3.1) %"}, {"measurement": "Germination, Stylidium affine", "setting": "[5]; [20]", "value": "67.9 (2.5) %"}, {"measurement": "Conostylis aculeate germination", "setting": "[6]; 1/10 000 of compound 1a 1 mg/L", "value": "29.4 (3.4) %"}, {"measurement": "Conostylis aculeate germination", "setting": "[6]; [23]", "value": "48.2 (4.0) %"}, {"measurement": "Conostylis aculeate germination", "setting": "[6]; [24]", "value": "50.6 (6.5) %"}, {"measurement": "Conostylis aculeate germination", "setting": "[6]; 1/1000 of compound 1a 1 mg/L", "value": "43.0 (4.5) %"}, {"measurement": "Conostylis aculeate germination", "setting": "[6]; [19]", "value": "46.3 (3.1) %"}, {"measurement": "Germination, Conostylis aculeata", "setting": "[6]; [20]", "value": "46.5 (4.9) %"}, {"measurement": "Germination, Nicotiana attenuate", "setting": "[7]", "value": "**44.4 (±1.9) b %"}, {"measurement": "Germination, Caulanthus heterophyllus", "setting": "[8]", "value": "97.3 (±0.7) b %"}, {"measurement": "Germination, Lawrencella davenportii", "setting": "[9]", "value": "56.3 (±8.5) b %"}, {"measurement": "Germination, Emmenanthe penduliflora", "setting": "[10]", "value": "82.0 (±4.2) b %"}, {"measurement": "Germination (%), Opercularia vaginate", "setting": "[11]", "value": "22.7 ± 7.4", "unit": "b %"}, {"measurement": "Germination (%), Centrolepis aristate", "setting": "[12]", "value": "88.0 ± 0.0", "unit": "b %"}, {"measurement": "Germination (%), Phyllanthus calycinus", "setting": "[13]", "value": "17.3 ± 1.3", "unit": "b %"}, {"measurement": "Germination (%), Borya sphaerocephala", "setting": "[14]", "value": "13.3 ± 4.8", "unit": "b %"}, {"measurement": "Germination (%), Cherianthera preissiana", "setting": "[15]", "value": "46.7 ± 4.8", "unit": "b %"}, {"measurement": "duration of priming sufficient to induce germination promotion", "setting": "[16]", "value": 1, "unit": "min"}, {"measurement": "Germination, Microlaena stipoides", "setting": "[17]", "value": "78.3 ± 6.7", "unit": "b"}, {"measurement": "Germination (%), Microlaena stipoides", "setting": "[18]; De-hulled seeds", "value": "100 ± 0.0", "unit": "a %"}, {"measurement": "Germination (%), Microlaena stipoides", "setting": "[18]; Intact seeds", "value": "78.3 ± 6.3", "unit": "b %"}]}]}
